One data set deals with pepsin. Briefly: Stability of oral formulations of Angiopep peptides in the presence of pepsin. Type of data set: in vitro ADME. As to conditions: pepsin (isolated enzyme); 1 mg/mL peptide; 1 mg/25 mL pepsin (diluted 41 times, pH=1.4); 37° C. As to the method: The stability of oral formulations (1 mg/mL of Angiopep peptide) was determined in the presence of 1 mg/25 mL of pepsin (diluted 41 times, pH=1.4), an enzyme present in gastric fluid, at 37° C. Table 5 provides the half-life (t1/2) for degradation of various Angiopep peptides.
Sequence of pepsin (P0DJD8 63-388): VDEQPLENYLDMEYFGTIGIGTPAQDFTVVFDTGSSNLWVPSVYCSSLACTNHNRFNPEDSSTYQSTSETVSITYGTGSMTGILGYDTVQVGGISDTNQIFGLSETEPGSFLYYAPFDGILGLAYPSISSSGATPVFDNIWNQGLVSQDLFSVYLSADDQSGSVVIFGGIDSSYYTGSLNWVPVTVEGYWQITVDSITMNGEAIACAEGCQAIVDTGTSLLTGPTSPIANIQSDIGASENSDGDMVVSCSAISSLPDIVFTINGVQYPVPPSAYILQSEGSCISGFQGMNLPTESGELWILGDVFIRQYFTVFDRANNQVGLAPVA

The test system of the next data set is BBB. Briefly: In situ brain perfusion in mice with capillary depletion (transport across the BBB). It counts as in vivo. The conditions noted are these: for crossing of the BBB (overall conclusion): mouse, in vivo.
The subject of the next data set is mice. Briefly: Induction of hypothermia (body temperature) after intravenous bolus. The conditions noted are these: Table 9 grades. Type of data set: in vivo.

Ends that are not written are not given here. Where only a bound is given, the exact number is not on record here.

Experimental for BBB: The initial transport was measured as a function of time.

As a reminder, the half-life is how long it takes for the measured level to halve. With `N=C(N)NCCC[C@@H](NC(=O)[C@H](N)CCCCN)C(=O)N[C@@H](CC(N)=O)C(=O)N[C@@H](CC(N)=O)C(=O)N[C@H](Cc1ccccc1)C(=O)N[C@@H](CCCCN)C(=O)N[C@@H](Cc1ccc(O)cc1)C(=O)N[C@@H](CS)C(N)=O` [Peptide P6a, D-Lys-D-Arg-Asn-Asn-D-Phe-Lys-Tyr-Cys], the half-life at 1 mg/mL in the data set with pepsin is more than 1080 min. `C[C@@H](O)[C@H](N)C(=O)N[C@@H](Cc1ccccc1)C(=O)N[C@@H](Cc1ccccc1)C(=O)N[C@@H](Cc1ccc(O)cc1)C(=O)NCC(=O)NCC(=O)N[C@@H](CO)C(=O)N[C@H](CCCNC(=N)N)C(=O)NCC(=O)N[C@H](CCCCN)C(=O)N[C@H](CCCNC(=N)N)C(=O)N[C@@H](CC(N)=O)C(=O)N[C@@H](CC(N)=O)C(=O)N[C@@H](Cc1ccccc1)C(=O)N[C@@H](CCCCN)C(=O)N[C@H](C(=O)N[C@@H](CCC(=O)O)C(=O)N[C@@H](CCC(=O)O)C(=O)N[C@@H](Cc1ccc(O)cc1)C(=O)O)[C@@H](C)O` [Peptide 3D-An2]: the half-life at 1 mg/mL in the data set with pepsin amounted to 60 min. Still for that read-out and setting: under `C[C@@H](O)[C@H](NC(=O)[C@H](CCCCN)NC(=O)[C@@H](Cc1ccccc1)NC(=O)[C@H](CC(N)=O)NC(=O)[C@H](CC(N)=O)NC(=O)[C@@H](CCCNC(=N)N)NC(=O)[C@H](N)CCCCN)C(=O)N[C@@H](CCC(=O)O)C(=O)N[C@@H](CCC(=O)O)C(=O)N[C@@H](Cc1ccc(O)cc1)C(=O)N[C@@H](CS)C(N)=O` [Peptide P5a, D-Lys-D-Arg-Asn-Asn-D-Phe-Lys-Thr-Glu-Glu-Tyr-Cys] stands 21 min. In the case of FYGGSRGKRNNFKTEEYC-NH2 [Peptide P1], in the data set with BBB, the “crossing of the BBB (overall conclusion)” value was “effectively cross the BBB”.

For `N=C(N)NCCC[C@H](NC(=O)[C@@H](N)CCCCN)C(=O)N[C@@H](CC(N)=O)C(=O)N[C@@H](CC(N)=O)C(=O)N[C@@H](Cc1ccccc1)C(=O)N[C@@H](CCCCN)C(=O)N[C@@H](Cc1ccc(O)cc1)C(=O)N[C@@H](CS)C(N)=O` [Peptide P6], the half-life at 1 mg/mL in the data set on pepsin is more than 240 min. With `CC[C@H](C)[C@H](NC(=O)[C@@H](Cc1ccc(O)cc1)NC(=O)[C@@H]1CCCN1C(=O)[C@H](CCCNC(=N)N)NC(=O)[C@H](CCCNC(=N)N)NC(=O)[C@H](CCCCNC(=O)CCCCCN1C(=O)CC(SC[C@H](NC(=O)[C@H](Cc2ccc(O)cc2)NC(=O)[C@H](CCC(=O)O)NC(=O)[C@H](CCC(=O)O)NC(=O)[C@@H](NC(=O)[C@H](CCCCN)NC(=O)[C@@H](Cc2ccccc2)NC(=O)[C@H](CC(N)=O)NC(=O)[C@H](CC(N)=O)NC(=O)[C@@H](CCCNC(=N)N)NC(=O)[C@H](N)CCCCN)[C@@H](C)O)C(N)=O)C1=O)NC(C)=O)C(=O)N[C@@H](CC(C)C)C(=O)O` (stereo partly shown) [Peptide P5a-NT1], the brain uptake result with BBB (in situ brain perfusion in mice, initial transport measured as a function of time) was “higher than for neurotensin (NT)”. Consider `C[C@@H](O)[C@H](NC(=O)[C@H](CCCCN)NC(=O)[C@H](Cc1ccccc1)NC(=O)[C@H](CC(N)=O)NC(=O)[C@H](CC(N)=O)NC(=O)[C@H](CCCNC(=N)N)NC(=O)[C@@H](N)CCCCN)C(=O)N[C@@H](CCC(=O)O)C(=O)N[C@@H](CCC(=O)O)C(=O)N[C@@H](Cc1ccc(O)cc1)C(=O)N[C@@H](CS)C(N)=O` [Peptide P5], for which the “crossing of the BBB (overall conclusion)” value in the data set with BBB was “effectively cross the BBB”. Further, in the data set with pepsin, the half-life at 1 mg/mL worked out at 24 min. For the compound `C[C@@H](O)[C@H](N)C(=O)N[C@@H](Cc1ccccc1)C(=O)N[C@@H](Cc1ccccc1)C(=O)N[C@@H](Cc1ccc(O)cc1)C(=O)NCC(=O)NCC(=O)N[C@@H](CO)C(=O)N[C@@H](CCCNC(=N)N)C(=O)NCC(=O)N[C@@H](CCCCN)C(=O)N[C@@H](CCCNC(=N)N)C(=O)N[C@@H](CC(N)=O)C(=O)N[C@@H](CC(N)=O)C(=O)N[C@@H](Cc1ccccc1)C(=O)N[C@@H](CCCCN)C(=O)N[C@H](C(=O)N[C@@H](CCC(=O)O)C(=O)N[C@@H](CCC(=O)O)C(=O)N[C@@H](Cc1ccc(O)cc1)C(=O)O)[C@@H](C)O` [An2, T F F Y G G S R G K R N N F K T E E Y, reference compound], the half-life at 1 mg/mL in the data set on pepsin is 40 min. Consider “TFFYGGSRG K R N N F KTEEY E L Y E N K P R R P Y I L (TFFYGGSRGKRNNFKTEEYELYENKPRRPYIL) [An2-NT, fusion protein]”, for which the Hypothermia entry in the data set with mice is reported as “✓✓✓”.
